Measurements published in paper PMC7093798 (Data in Brief, 2019).

Test system: aminopyrine N-demethylase activity (CYP)
Test: CYP inhibition: aminopyrine N-demethylase
Format: in vitro ADME, rat
Conditions: RLM, 1–100 μM

Which “AND inhibitory activity (in words)” value does the source give for `O=C(/C=C/c1cccnc1)NCCCCC1CCN(C(=O)c2ccccc2)CC1` [FK866] here?
Its value is “mild AND inhibitory activity only at 100 μM concentration”.
